{"source": "patent US9643940B2", "about": "“Amine salt and crystals thereof” (ONO PHARMACEUTICAL CO., LTD., priority 2012, dated 2017)", "key": {"[1]": {"test": "Examination of salts of Compound 17 for crystallization", "format": "physicochemical", "conditions": "for State: salt of Compound 17 with the stated counter base, concentrated from methanol, triturated with various solvents; for State of the salt: salts of Compound 17 with the named bases", "procedure": "Then, the mixture was concentrated under reduced pressure and trituration was conducted with using various solvents. For the examination, ethyl acetate, methyl t-butyl ether, n-hexane and the like were used as the solvents."}, "[2]": {"test": "Chemical stability test (residual percentage by HPLC after storage)", "format": "physicochemical", "conditions": "for Residual percentage (%): relative to sample stored at −20° C., HPLC; for residual percentages: during storage under each condition", "procedure": "With respect to Compound 17 and Crystalline forms A, B and C of Compound 18, chemical stability test was conducted according to the method and the condition below.\nIn a laboratory tube, approximately 1.5 to 3 mg of a test compound was weighed and stored under the condition below.\nAfter storing, the residual percentage (%) of the sample stored under each condition relative to the area percentage of the main component in the sample stored at −20° C. was calculated with using HPLC. In addition, the appearance was observed by eye and compared with the sample stored at −20° C.\n80° C.: One week, two weeks and one month\n60° C.: Two weeks and one month\n40° C.: Two weeks, one month, two months, four months and six months\n25° C.-60% RH: Two months, four months and six months\n5° C.: Two months, four months and six months\n40° C.-75% RH (opened): Two weeks, one month, two months, four months and six months\n25° C.-40% RH (opened): Two weeks, one month and two months\n25° C.-60% RH (opened): Two weeks, one month and two months\n25° C.-75% RH (opened): Two weeks, one month and two months\nThe samples to be compared with the samples above were stored at −20° C.\nA sample to be evaluated was dissolved in a mixed solution of acetonitrile/20 mmol/L KH2PO4 aq. (pH3.0 with H3PO4) (1/1) and a solution of 1.0 mg/mL (concentration as a salt) was prepared.\nDetector: Ultraviolet absorptiometer (measurement wavelength: 215 nm)\nColumn: CHIRALCEL OD-3R (150×4.6 mm, S-5 μm)\nColumn temperature: 25° C.\nMobile phase: Solution A: 20 mmol/L KH2PO4 aq. (pH3.0 with H3PO4), Solution B: CH3CN\nArea measurement range: 35 minutes"}, "[3]": {"test_system": "bladder detrusor", "test": "Evaluation of the activity to contract the bladder detrusor (bladder strip specimens, Magnus system)", "format": "tissue-based", "conditions": "rat bladder strip; for Change of tension (%): contraction evoked by potassium chloride solution (7.5 mmol/L) set at 100%", "procedure": "Rats were anesthetized with pentobarbital, followed by abdominal incision to remove the bladders and the urethras. The bladder bodies were cut in the longitudinal direction to prepare strip specimens with a size of about 10×3 mm. Additionally, each of the urethras was also cut in the longitudinal direction to prepare specimens with a size of about 10×3 mm. The prepared specimens were suspended in Krebs buffer (37° C., 5 mL), which was aerated with a mixed gas of 95% O2 and 5% CO2. The tension values of the specimens were measured using a Magnus system equipped with an isometric transducer and an amplifier, and the measured values were recorded on a computer via a data collection system. The specimens were suspended with a load of about 0.5 g. More than 1 hr later, potassium chloride (100 mmol/L) was added and the maximal contraction response was observed. After washing with Krebs buffer, the specimens were suspended with a load of about 0.5 g for stabilization. A potassium chloride solution (7.5 mmol/L) was added to induce the contraction of the specimens. After the contraction-inducing response was stabilized, the test compound was added in a cumulative manner and the response was observed before and after the treatment with the drug. The change of tension (%) of a test compound of each concentration was calculated with setting the contraction evoked by the addition of potassium chloride solution (mg) at 100%."}}, "data": [{"molecule": "OC[C@@H]1CCCN1", "values": [{"measurement": "State", "setting": "[1]", "value": "Oily"}]}, {"molecule": "CNCCOC", "values": [{"measurement": "State", "setting": "[1]", "value": "Oily"}]}, {"molecule": "C[C@@](O)(C/C=C/[C@H]1CCC(=O)[C@@H]1CCSc1nc(C(=O)O)cs1)CCC(F)=C(F)F", "note": "[Compound 17, 2-[(2-{(1R,5R)-2-oxo-5-[(1E,4S)-7,8,8-trifluoro-4-hydroxy-4-methyl-1,7-octadien-1-yl]cyclopentyl}ethyl)thio]-1,3-thiazole-4-carboxylic acid]", "values": [{"measurement": "Residual percentage (%)", "setting": "[2]; 40° C.-75% RH-one month", "value": 58.6, "unit": "%"}, {"measurement": "Residual percentage (%)", "setting": "[2]; 40° C.-one month", "value": 76.0, "unit": "%"}, {"measurement": "Residual percentage (%)", "setting": "[2]; 60° C.-one month", "value": 60.4, "unit": "%"}, {"measurement": "residual percentages", "setting": "[2]", "value": "decreased"}]}, {"molecule": "[K+]", "note": "[Potassium]", "values": [{"measurement": "State", "setting": "[1]", "value": "Oily"}, {"measurement": "State of the salt", "setting": "[1]", "value": "amorphous oily substances"}]}, {"molecule": "CNCCNC", "values": [{"measurement": "State", "setting": "[1]", "value": "Oily"}]}, {"molecule": "CC(C)(C)N", "note": "[t-Butylamine]", "values": [{"measurement": "State", "setting": "[1]", "value": "Oily"}]}, {"molecule": "CNCCCO", "values": [{"measurement": "State", "setting": "[1]", "value": "Oily"}]}, {"molecule": "C=CCNCC=C", "values": [{"measurement": "State", "setting": "[1]", "value": "Oily"}]}, {"molecule": "C#CCN(C)C", "values": [{"measurement": "State", "setting": "[1]", "value": "Oily"}]}, {"molecule": "Arginine", "values": [{"measurement": "State", "setting": "[1]", "value": "Oily"}, {"measurement": "State of the salt", "setting": "[1]", "value": "amorphous oily substances"}]}, {"molecule": "CCN(CC)CC", "note": "[Triethylamine]", "values": [{"measurement": "State", "setting": "[1]", "value": "Oily"}, {"measurement": "State of the salt", "setting": "[1]", "value": "amorphous oily substances"}]}, {"molecule": "Piperidin-4-ylmethanol 2-[(2-{(1R,5R)-2-oxo-5-[(1E,4S)-7,8,8-trifluoro-4-hydroxy-4-methyl-1,7-octadien-1-yl]cyclopentyl}ethyl)thio]-1,3-thiazole-4-carboxylate [Compound 18]", "values": [{"measurement": "State", "setting": "[1]", "value": "Crystalline solid"}, {"measurement": "Change of tension (%)", "setting": "[3]; 1 nmol/L", "value": 5.97, "unit": "%"}, {"measurement": "Change of tension (%)", "setting": "[3]; 10 nmol/L", "value": 54.35, "unit": "%"}, {"measurement": "Change of tension (%)", "setting": "[3]; 100 nmol/L", "value": 177.91, "unit": "%"}, {"measurement": "Change of tension (%)", "setting": "[3]; 1 μmol/L", "value": 245.91, "unit": "%"}, {"measurement": "Effect on the bladder detrusor (in words)", "setting": "[3]", "value": "contracted the bladder detrusor"}, {"measurement": "residual percentages", "setting": "[2]", "value": "≥ 90", "unit": "%"}]}, {"molecule": "[Mg]", "note": "[Magnesium]", "values": [{"measurement": "State", "setting": "[1]", "value": "Oily"}, {"measurement": "State of the salt", "setting": "[1]", "value": "amorphous oily substances"}]}, {"molecule": "C1CCCNCC1", "values": [{"measurement": "State", "setting": "[1]", "value": "Oily"}]}, {"molecule": "[Ca]", "note": "[Calcium]", "values": [{"measurement": "State", "setting": "[1]", "value": "Oily"}, {"measurement": "State of the salt", "setting": "[1]", "value": "amorphous oily substances"}]}, {"molecule": "C[C@@](O)(C/C=C/[C@H]1CCC(=O)[C@@H]1CCSc1nc(C(=O)O)cs1)CCC(F)=C(F)F", "note": "[Crystalline Form A, piperidin-4-ylmethanol 2-[(2-{(1R,5R)-2-oxo-5-[(1E,4S)-7,8,8-trifluoro-4-hydroxy-4-methyl-1,7-octadien-1-yl]cyclopentyl}ethyl)thio]-1,3-thiazole-4-carboxylate]", "values": [{"measurement": "Residual percentage (%)", "setting": "[2]; 40° C.-75% RH-one month", "value": 92.0, "unit": "%"}, {"measurement": "Residual percentage (%)", "setting": "[2]; 40° C.-one month", "value": 99.6, "unit": "%"}, {"measurement": "Residual percentage (%)", "setting": "[2]; 60° C.-one month", "value": 98.6, "unit": "%"}]}, {"molecule": "COC1CCNCC1", "values": [{"measurement": "State", "setting": "[1]", "value": "Oily"}]}, {"molecule": "c1ccc(CNCc2ccccc2)cc1", "values": [{"measurement": "State", "setting": "[1]", "value": "Oily"}]}, {"molecule": "CCCCNCCC", "values": [{"measurement": "State", "setting": "[1]", "value": "Oily"}]}, {"molecule": "OCCC1CCNCC1", "note": "[4-piperidineethanol]", "values": [{"measurement": "State of the salt", "setting": "[1]", "value": "amorphous oily substances"}]}, {"molecule": "CCNCCCCO", "values": [{"measurement": "State", "setting": "[1]", "value": "Oily"}]}, {"molecule": "C1CCC(NC2CCCCC2)CC1", "note": "[Dicyclohexylamine]", "values": [{"measurement": "State", "setting": "[1]", "value": "Oily"}, {"measurement": "State of the salt", "setting": "[1]", "value": "amorphous oily substances"}]}, {"molecule": "OCCC1CCNCC1", "note": "[drawing 22]", "values": [{"measurement": "State", "setting": "[1]", "value": "Oily"}]}, {"molecule": "Lysine", "values": [{"measurement": "State", "setting": "[1]", "value": "Oily"}, {"measurement": "State of the salt", "setting": "[1]", "value": "amorphous oily substances"}]}, {"molecule": "C[C@@](O)(C/C=C/[C@H]1CCC(=O)[C@@H]1CCSc1nc(C(=O)O)cs1)CCC(F)=C(F)F", "note": "[Crystalline Form B, piperidin-4-ylmethanol 2-[(2-{(1R,5R)-2-oxo-5-[(1E,4S)-7,8,8-trifluoro-4-hydroxy-4-methyl-1,7-octadien-1-yl]cyclopentyl}ethyl)thio]-1,3-thiazole-4-carboxylate]", "values": [{"measurement": "Residual percentage (%)", "setting": "[2]; 40° C.-75% RH-one month", "value": 92.6, "unit": "%"}, {"measurement": "Residual percentage (%)", "setting": "[2]; 40° C.-one month", "value": 99.6, "unit": "%"}, {"measurement": "Residual percentage (%)", "setting": "[2]; 60° C.-one month", "value": 98.3, "unit": "%"}]}, {"molecule": "CCc1ncc[nH]1", "values": [{"measurement": "State", "setting": "[1]", "value": "Oily"}]}, {"molecule": "OC1CCNCC1", "note": "[drawing 24]", "values": [{"measurement": "State", "setting": "[1]", "value": "Oily"}]}, {"molecule": "C[C@@](O)(C/C=C/[C@H]1CCC(=O)[C@@H]1CCSc1nc(C(=O)O)cs1)CCC(F)=C(F)F", "note": "[Crystalline Form C, piperidin-4-ylmethanol 2-[(2-{(1R,5R)-2-oxo-5-[(1E,4S)-7,8,8-trifluoro-4-hydroxy-4-methyl-1,7-octadien-1-yl]cyclopentyl}ethyl)thio]-1,3-thiazole-4-carboxylate]", "values": [{"measurement": "Residual percentage (%)", "setting": "[2]; 40° C.-75% RH-one month", "value": 97.5, "unit": "%"}, {"measurement": "Residual percentage (%)", "setting": "[2]; 40° C.-one month", "value": 99.4, "unit": "%"}, {"measurement": "Residual percentage (%)", "setting": "[2]; 60° C.-one month", "value": 97.9, "unit": "%"}]}, {"molecule": "OCCNCCO", "note": "[Diethanolamine]", "values": [{"measurement": "State", "setting": "[1]", "value": "Oily"}, {"measurement": "State of the salt", "setting": "[1]", "value": "amorphous oily substances"}]}, {"molecule": "CC1CCNCC1", "note": "[drawing 23]", "values": [{"measurement": "State", "setting": "[1]", "value": "Oily"}]}, {"molecule": "C1=CCNCC1", "values": [{"measurement": "State", "setting": "[1]", "value": "Oily"}]}, {"molecule": "c1ccc2c(c1)CNC2", "values": [{"measurement": "State", "setting": "[1]", "value": "Oily"}]}, {"molecule": "Sodium", "values": [{"measurement": "State", "setting": "[1]", "value": "Oily"}, {"measurement": "State of the salt", "setting": "[1]", "value": "amorphous oily substances"}]}, {"molecule": "CC1CCNCC1", "note": "[4-methylpiperidine]", "values": [{"measurement": "State of the salt", "setting": "[1]", "value": "amorphous oily substances"}]}, {"molecule": "CN1CCCCC1", "values": [{"measurement": "State", "setting": "[1]", "value": "Oily"}]}, {"molecule": "OC1CCNCC1", "note": "[4-hydroxypiperidine]", "values": [{"measurement": "State of the salt", "setting": "[1]", "value": "amorphous oily substances"}]}]}
